From patent US10828315B2 (Madrigal Pharmaceuticals, Inc., priority 2013, dated 2020)
Several values for one entry are separate records, joined by “and”; a condition that tells them apart may be missing. Equal values may be shown once. Read-outs that look alike come from different tables or passages of the source. Blank lines part the entries; values can stand above or below the compound they belong to.

Legend:
H 3211 NSLC cells = test: IC50 of continuous and pulsed exposure (Examples 9 and 10); assay type: cell-based
Human H3122 NSCLC cells = test: Cell viability assay (CellTiter-Glo) in H3122 cells (Example 4); assay type: cell-based; settings: NCI-H3122
Protocol: Human H3122 NSCLC cells were obtained and grown in RPMI in the presence of fetal bovine serum (10%), 2 mM L-glutamine and antibiotics (100 IU/ml penicillin and 100 μg/ml streptomycin, Sigma Aldrich.) Cells were maintained at 37° C., 5% CO2 atmosphere.
Cell viability was measured using the CellTiter-Glo® assay (Promega). In brief, cells were plated in 96-well plates in triplicate at optimal seeding density (determined empirically) and incubated at 37° C., 5% CO2 atmosphere for 24 hr prior to the addition of drug or vehicle (0.3% DMSO) to the culture medium. At the end of the assay, CellTiter-Glo was added to the wells per manufacturer's recommendation, shaken for two minutes and incubated for 10 minutes at room temperature. Luminescence (0.1 sec) was measured with a Victor II microplate reader (Perkin Elmer) and the resulting data were used to calculate cell viability, normalized to vehicle control.
Cells as described above were treated with exemplary SDC-TRAPs and their viability determined as above as well. The following table illustrates the results.

HER2 [1] = test: HER2 degradation assay with BT-474 cell line (Example 12, FACS); assay type: cell-based, human
[2] = Stability in cell culture media (Example 18)
[3] = Tissue Distribution Data for SDC-TRAP-0045
HER2 [4] = test: HER2 degradation in BT-474 cells (Example 3, Methods 1 and 2); assay type: cell-based, human
Text: This example illustrates how a HER2 degradation assay may be used as a test to determine and select Hsp90-targeting moieties suitable for use in SDC-TRAPs of the invention, and further illustrates the ability of SDC-TRAPs to target cells preferentially expressing Hsp90. Such a test may further be used to determine the Hsp90 binding ability of SDC-TRAPs of the invention, as well as through competitive binding assays and cell-based Hsp90 client protein degradation assays known in the art.
After treatment, each cytoplasmic sample is prepared from 1×10^6 cells by incubation of cell lysis buffer (#9803, Cell Signaling Technology) on ice for 10 minutes. The resulting supernatant used as the cytosol fractions is dissolved with sample buffer for SDS-PAGE and run on a SDS-PAGE gel, blotted onto a nitrocellulose membrane by using semi-dry transfer. Non-specific binding to nitrocellulose is blocked with 5% skim milk in TBS with 0.5% Tween at room temperature for 1 hour, then probed with anti-HER2/ErB2 mAb (rabbit IgG, #2242, Cell Signaling) and anti-Tubulin (T9026, Sigma) as housekeeping control protein. HRP-conjugated goat anti-rabbit IgG (H+L) and HRP-conjugated horse anti-mouse IgG (H+L) are used as secondary Ab (#7074#7076, Cell Signaling) and LumiGLO reagent, 20× Peroxide (#7003, Cell Signaling) is used for visualization. The Hsp90 client protein HER2 is degraded when cells are treated with Hsp90-targeting moieties or SDC-TRAPs of the invention.
BT-474 cells are plated in the interior 60 wells of a 96 well black clear bottom plate (20,000 cells/well) in DMEM medium, with DMEM media in the surrounding 36 wells, and incubated at 37° C. with 5% CO2 overnight. On the second day, concentration response curve source plates are produced (10 point, 3-fold dilution of compounds in DMSO) followed by a 1:30 dilution in an intermediate dilution plate containing DMEM. Compound is transferred from the intermediate plate to the cell plate at a dilution of 1:10. The cells are then incubated at 37° C. with 5% CO2 for 24 hours.
Cells are then fixed in 4% phosphate-buffered paraformaldehyde for 30 minutes at room temperature and then permeabilized by washing five times with 0.1% Triton X-100 in PBS for 5 minutes at room temperature on a shaker. […] Cells are washed five times with 0.1% Tween-20 in PBS for 5 minutes at room temperature on a shaker and incubated with fluorescently-labeled secondary antibody (LI-COR, #926-32211) diluted 1:1000 in blocking buffer, and DRAQ5 nuclear stain (Biostatus Limited, # DRAQ5) diluted 1:10,000, at room temperature on a shaker for 1 hour. Cells are washed 5 times with 0.1% Tween-20 in PBS for 5 minutes at room temperature on a shaker and imaged on a LI-COR Odyssey imaging station. The raw data is normalized to DRAQ5 and the HER2 EC50 is calculated using XLfit™.

[5] = Mouse plasma stability protocol, up to 1 h (Examples 16-18)
[6] = Artificial membrane permeability assay (PAMPA); settings: incubation 5 h, first table
[7] = read-out: IC50, 72h-continuous, 7.5 × 10^3 cells/well, three replicate columns

SMILES: CC(C)c1cc(-c2nnc(O)n2-c2ccc3c(ccn3CCOCCNC(=O)CCCC(=O)Nc3cccc4c3CN(C3CCC(=O)NC3=O)C4=O)c2)c(O)cc1O (stereo not drawn) [SDC-TRAP-0015, N1-(2-(2-(5-(3-(2,4-dihydroxy-5-isopropylphenyl)-5-hydroxy-4H-1,2,4-triazol-4-yl)-1H-indol-1-yl)ethoxy)ethyl)-N5-(2-(2,6-dioxopiperidin-3-yl)-1-oxoisoindolin-4-yl)glutaramide]
- IC50 (H 3211 NSLC cells; [7]): 796 nM
- IC50 (Human H3122 NSCLC cells): 1270 nM

SMILES: CCc1c2c(nc3ccc(OC(=O)N4CCN(c5ccc(-n6c(O)nnc6-c6cc(C(C)C)c(O)cc6O)cc5)CC4)cc13)-c1cc3c(c(=O)n1C2)COC(=O)C3(O)CC (stereo not drawn) [SDC-TRAP-0045, 4,11-diethyl-4-hydroxy-3,14-dioxo-3,4,12,14-tetrahydro-1H-pyrano[3′,4′:6,7]indolizino[1,2-b]quinolin-9-yl 4-(4-(3-(2,4-dihydroxy-5-isopropylphenyl)-5-hydroxy-4H-1,2,4-triazol-4-yl)phenyl)piperazine-1-carboxylate]
- IC50 (HER2 [1]): 464 nM
- Media (5 μM) % Remaining 19 h (37° C.) [2]: 50%
- Media (5 μM) % Remaining 1 h (37° C.)§ ([2]; data from single parent peak): 72%
- Media (5 μM) % Remaining 1 h (37° C.)* ([2]; sum of both peaks): 77%
- Plasma Conc. ([3]; Time (h) 0.083): 689000 nM
- Tumor Conc. ([3]; Time (h) 0.083): 4.30 nmol/g of tissue
- Tumor/Plasma Ratio ([3]; Time (h) 0.083): 0.00624
- Plasma Conc. ([3]; Time (h) 6): 1880 nM
- Tumor Conc. ([3]; Time (h) 6): 2.55 nmol/g of tissue
- Tumor/Plasma Ratio ([3]; Time (h) 6): 1.35
- Plasma Conc. ([3]; Time (h) 12): 141 nM
- Tumor Conc. ([3]; Time (h) 12): 1.13 nmol/g of tissue
- Tumor/Plasma Ratio ([3]; Time (h) 12): 8.02
- Plasma Conc. ([3]; Time (h) 24): 11.3 nM
- Tumor Conc. ([3]; Time (h) 24): BQL
- Plasma Conc. ([3]; Time (h) 48): BQL
- Tumor Conc. ([3]; Time (h) 48): BQL
- IC50 (HER2 [4]): 464 nM
- % Remaining (1 h) ([5]; % Remaining of parent after 1 h incubation in mouse plasma at 37° C. (10 μM)): 45.0%
- % Remaining (1 h, 37° C.) ([5]; mouse plasma, 1 h, 37° C.): 45%
- Mouse (10 μM) % Remaining 1 h (37° C.)§ ([5]; mouse plasma, data from single parent peak): 34%
- Mouse (10 μM) % Remaining 1 h (37° C.)* ([5]; mouse plasma, sum of both peaks): 45%

SMILES: CCc1c2c(nc3ccc(O)cc13)-c1cc3c(c(=O)n1C2)COC(=O)C3(CC)OC(=O)CCCNC(=O)c1cc2cc(-n3c(O)nnc3-c3cc(C(C)C)c(O)cc3O)ccc2n1C (stereo not drawn) [SDC-TRAP-0024, 4,11-diethyl-9-hydroxy-3,14-dioxo-3,4,12,14-tetrahydro-1H-pyrano[3′,4′:6,7]indolizino[1,2-b]quinolin-4-yl 4-(5-(3-(2,4-dihydroxy-5-isopropylphenyl)-5-hydroxy-4H-1,2,4-triazol-4-yl)-1-methyl-1H-indole-2-carboxamido)butanoate]
- IC50 (H 3211 NSLC cells; read-out: IC50, 1h-pulse/71h-compound free, 7.5 × 10^3 cells/well, two replicate columns): 697 nM and 2210 nM
- IC50 (H 3211 NSLC cells; [7]): < 12 nM and 118 nM and 104 nM
- IC50 (Human H3122 NSCLC cells): 99 nM
- IC50 (HER2 [4]): > 5000 nM

SMILES: CC(C)c1cc(-c2nnc(O)n2-c2ccc3c(ccn3CCN(C)C(=O)c3ccc(CCc4c[nH]c5nc(N)[nH]c(=O)c45)cc3)c2)c(O)cc1O [SDC-TRAP-0019, 4-(2-(2-amino-4-oxo-4,7-dihydro-3H-pyrrolo[2,3-d]pyrimidin-5-yl)ethyl)-N-(2-(5-(3-(2,4-dihydroxy-5-isopropylphenyl)-5-hydroxy-4H-1,2,4-triazol-4-yl)-1H-indol-1-yl)ethyl)-N-methylbenzamide]
- IC50 (Human H3122 NSCLC cells): 393 nM

SMILES: CC(C)c1cc(-c2nnc(O)n2-c2ccc3c(ccn3CCOCCNC(=O)c3ccc(CCc4c[nH]c5nc(N)[nH]c(=O)c45)cc3)c2)c(O)cc1O [SDC-TRAP-0020, 4-(2-(2-amino-4-oxo-4,7-dihydro-3H-pyrrolo[2,3-d]pyrimidin-5-yl)ethyl)-N-(2-(2-(5-(3-(2,4-dihydroxy-5-isopropylphenyl)-5-hydroxy-4H-1,2,4-triazol-4-yl)-1H-indol-1-yl)ethoxy)ethyl)benzamide]
- IC50 (Human H3122 NSCLC cells): 1740 nM

SMILES: CCc1c2c(nc3ccc(OCC(=O)NCCn4ccc5cc(-n6c(O)nnc6-c6cc(C(C)C)c(O)cc6O)ccc54)cc13)-c1cc3c(c(=O)n1C2)COC(=O)C3(O)CC (stereo not drawn) [SDC-TRAP-0023, 2-((4,11-diethyl-4-hydroxy-3,14-dioxo-3,4,12,14-tetrahydro-1H-pyrano[3′,4′:6,7]indolizino[1,2-b]quinolin-9-yl)oxy)-N-(2-(5-(3-(2,4-dihydroxy-5-isopropylphenyl)-5-hydroxy-4H-1,2,4-triazol-4-yl)-1H-indol-1-yl)ethyl)acetamide]
- IC50 (H 3211 NSLC cells; [7]): < 12 nM
- IC50 (Human H3122 NSCLC cells): 137 nM

SMILES: CCc1c2c(nc3ccc(OCC(=O)N(C)CCn4ccc5cc(-n6c(O)nnc6-c6cc(C(C)C)c(O)cc6O)ccc54)cc13)-c1cc3c(c(=O)n1C2)COC(=O)C3(O)CC (stereo not drawn) [SDC-TRAP-0027, 2-((4,11-diethyl-4-hydroxy-3,14-dioxo-3,4,12,14-tetrahydro-1H-pyrano[3′,4′:6,7]indolizino[1,2-b]quinolin-9-yl)oxy)-N-(2-(5-(3-(2,4-dihydroxy-5-isopropylphenyl)-5-hydroxy-4H-1,2,4-triazol-4-yl)-1H-indol-1-yl)ethyl)-N-methylacetamide]
- IC50 (H 3211 NSLC cells; 72 h, read-out: IC50, 72h-continuous, 7.5 × 10^3 cells/well, three replicate columns): 984 nM
- IC50 (Human H3122 NSCLC cells): 1350 nM

SMILES: CCc1c2c(nc3ccc(OC(=O)N(C)CCN(C)C(=O)c4cc5cc(-n6c(O)nnc6-c6cc(C(C)C)c(O)cc6O)ccc5n4C)cc13)-c1cc3c(c(=O)n1C2)COC(=O)C3(O)CC (stereo not drawn) [SDC-TRAP-0010]
- IC50 (HER2 [1]): > 5000 nM
- IC50 (H 3211 NSLC cells; [7]): 144 nM and 327 nM and 232 nM
- IC50 (Human H3122 NSCLC cells): 234 nM
- IC50 (HER2 [4]): > 5000 nM

Results, then the compound that gave them:

- Mass Retention [6]: 14.7%
- IC50 (Human H3122 NSCLC cells): 620 nM
SMILES: CC(C)c1cc(-c2nnc(O)n2-c2ccc3c(ccn3CCN(C)C(=O)CCCC(=O)Nc3cccc4c3CN(C3CCC(=O)NC3=O)C4=O)c2)c(O)cc1O (stereo not drawn) [SDC-TRAP-0018, N1-(2-(5-(3-(2,4-dihydroxy-5-isopropylphenyl)-5-hydroxy-4H-1,2,4-triazol-4-yl)-1H-indol-1-yl)ethyl)-N5-(2-(2,6-dioxopiperidin-3-yl)-1-oxoisoindolin-4-yl)-N1-methylglutaramide]

- IC50 (Human H3122 NSCLC cells): 717 nM
SMILES: CC(C)c1cc(-c2nnc(O)n2-c2ccc3c(ccn3CCN(C)C(=O)NCC(=O)Nc3cccc4c3CN(C3CCC(=O)NC3=O)C4=O)c2)c(O)cc1O (stereo not drawn) [SDC-TRAP-0021, 2-(3-(2-(5-(3-(2,4-dihydroxy-5-isopropylphenyl)-5-hydroxy-4H-1,2,4-triazol-4-yl)-1H-indol-1-yl)ethyl)-3-methylureido)-N-(2-(2,6-dioxopiperidin-3-yl)-1-oxoisoindolin-4-yl)acetamide]

- IC50 (Human H3122 NSCLC cells): > 3000 nM
SMILES: CC(C)c1cc(-c2nnc(O)n2-c2ccc3c(ccn3CCC(=O)Nc3cccc4c3CN(C3CCC(=O)NC3=O)C4=O)c2)c(O)cc1O (stereo not drawn) [SDC-TRAP-0017, 3-(5-(3-(2,4-dihydroxy-5-isopropylphenyl)-5-hydroxy-4H-1,2,4-triazol-4-yl)-1H-indol-1-yl)-N-(2-(2,6-dioxopiperidin-3-yl)-1-oxoisoindolin-4-yl)propanamide]
